Test results from patent US9198420B2, “Rodenticidal norbormide analogues” (priority 2012, dated 2015).

Assays:
rat caudal artery = assay: Rat caudal artery ring contractile force (vasoconstrictory activity); set-up: species or system rat (male Wistar)
Method: Male Wistar rats (150-250 g) were obtained from Charles River Italia (Milano, Italy) and killed by decapitation. Ventral caudal artery was isolated, placed in Tyrode solution at room temperature and cleaned of extraneous fatty and connective tissue under a dissection microscope. All vessels were cut into rings 2 mm long, mounted on a custom-built plexiglass support by means of two intraluminal tungsten wires and placed in 20 mL double-jacketed organ baths filled with Tyrode solution of the following composition (mM): NaCl 125, KCl 5, CaCl2 2.7, MgSO4 1, KH2PO4 1.2, NaHCO3 25 and glucose 11, maintained at 37° C., pH 7.35, bubbled with 95% O2 and […]. The endothelium was removed by gently rubbing the lumen of the rings with a very thin rough-surfaced tungsten wire (caudal artery). The mechanical activity of the rings was detected by means of an isometric force transducer (Ugo Basile, Comerio, Italy) coupled to a pen recorder (Ugo Basile, Comerio, Italy). Rings were passively stretched to impose a resting tension (2 g) and were allowed to equilibrate for 60 min. After equilibration, each ring was repeatedly simulated with both KCl (90 mM) and phenylephrine (10 μM) until reproducible responses were obtained. To verify the absence of the endothelium, rings contracted with 1 μM phenylephrine were exposed to […] carbamylcholine. […] Each compound was tested for the vasoconstrictor activity at a concentration of 50 μM, which has been previously reported to be the one evoking the maximal response to norbormide. The contractile responses to the compounds were expressed as percent of the 90 mM KCl response.

Sprague Dawley rats [1] = assay: In vivo lethality, intravenous injection via the tail; set-up: species or system rat (Sprague Dawley); conditions: 20 mg/Kg, rat, n = 3, Table 8
Method: (§1) Sprague Dawley rats (150-200 g) were used to appraise the rodenticidal activity of the compounds put forward for in vivo evaluation. Briefly, prior to administration the compounds were dissolved in 0.2 M hydrochloric acid (5% DMSO overall), to the desired dose, and without delay either injected intravenously, via the tail, or orally gavaged. All treated animals were housed in a quiet room and monitored every minute (i.v) or every 15 min (oral) to verify early signs of toxicity.

Sprague Dawley rats [2] = assay: In vivo lethality, oral gavage; set-up: species or system rat (Sprague Dawley); conditions: rat, n = 3, Table 8
Method: as §1

[3] = Simulated gastric fluid (SGF) hydrolytic stability assay; format: physicochemical; conditions: simulated gastric fluid without pepsin, pH 1.2, 37° C., 1 h, n = 3; for % NRB released, Hydrolytic Stability (simulated gastric fluid): footnote c: compounds not exhibiting vasoconstriction
Method: All in vivo candidates were subjected to a 1 h hydrolytic stability appraisal in the presence of SGF, without pepsin (United States Pharmacopoeia 24) [200 μL total volume, sodium chloride solution (0.03 M) acidified to pH 1.2 with concentrated hydrochloric acid, at a final compound concentration of 200 μM, 2.5% DMSO overall, 37° C., n=3], to investigate any potential chemical instabilities that may occur in the acidic environment of the stomach prior to uptake. Analysis was by RP-LCMS at an injection volume of 5 μL.

[4] = Rat serum assay (release of NRB or NRB analogue); format: in vitro ADME; conditions: 80% rat serum, 37° C., 3 h, n = 3
Method: The hydrolytic stability of compounds of the invention in rat blood was evaluated using in vitro rat serum obtained from Sigma-Aldrich and stored at −78° C. Similar assay conditions to those reported by Li Di and co-workers (Int. J. Pharm. 2005, 297, 110-119) were followed [200 μL total volume, 80% rat serum (diluting with phosphate buffer (0.1 M, pH 7.4)), at a final compound concentration of 200 μM, 2.5% DMSO overall, 37° C., 3 h, n=3] using an Eppendorf Thermomixer Compact. Reactions were quenched by transferring 150 μL of the incubation mixture to 450 μL of ice-cold acetonitrile, affording a final compound/NRB or NRB analogue concentration of 50 μM. Samples were centrifuged at 14,500×g for 15 min using an Eppendorf Mini Spin Plus centrifuge, at ambient temperature. 400 μL of the supernatant was removed and transferred to clean tubes. Analysis was by RP-LCMS at an injection volume of 20 μL. Each compound and corresponding NRB or NRB analogue were subjected to external calibration curves at 50 μM, 100 μM and 200 μM to allow conversion of absorbance unit area into nmol, from which the percentage of NRB or NRB analogue released from each compound was calculated.

[5] = Table 7, compounds of formula (V)
[6] = Table 5, compounds of formula (III)

| SMILES | Vasoconstriction: maximum contractile effect as a % of 90 mM KCl contraction (rat caudal artery; Table 1, compound at 50 μM) [%] | Vasoconstriction: maximum contractile effect as a % of 90 mM KCl contraction (rat caudal artery; Table 4, pre-cleavage, n = 3) [%] | % NRB released, Hydrolytic Stability (simulated gastric fluid) [3] | % NRB released, Rat Serum [4] [%] | Vasoconstriction: maximum contractile effect as a % of 90 mM KCl contraction (rat caudal artery; [6]) [%] | Vasoconstriction: maximum contractile effect as a % of 90 mM KCl contraction (rat caudal artery; n = 3, pre-cleavage, Table 6) [%] | % NRB released, Hydrolytic Stability [3] [%] | other results |
| --- | --- | --- | --- | --- | --- | --- | --- | --- |
| O=C1C2C3C=C(C(O)(c4ccccc4)c4ccccn4)C(C3=C(c3ccccc3)c3ccccn3)C2C(=O)N1CCO (stereo not drawn) [Compound 102, N-2′-Hydroxyethyl-5-(α-hydroxy-α-2-pyridylbenzyl)-7-(α-2-pyridylbenzylidene)-5-norbornene-2,3-dicarboximide] |  |  |  |  |  |  |  | Vasoconstriction: maximum contractile effect as a % of 90 mM KCl contraction (rat caudal artery; [5]): ≧132%; Vasoconstriction: maximum contractile effect as a % of 90 mM KCl contraction (rat caudal artery; n = 3, Table 8): ≧132%; In vivo lethality (i.v.) (Sprague Dawley rats [1]): yes^b; In vivo lethality (oral) (Sprague Dawley rats [2]; 20 mg/Kg): yes^c,d; In vivo lethality (oral) (Sprague Dawley rats [2]; 40 mg/Kg): yes^c,d |
| NCCN1C(=O)C2C3C=C(C(O)(c4ccccc4)c4ccccn4)C(C3=C(c3ccccc3)c3ccccn3)C2C1=O (stereo not drawn) [Compound 106, N-2′-Aminoethyl-5-(α-hydroxy-α-2-pyridylbenzyl)-7-(α-2-pyridylbenzylidene)-5-norbornene-2,3-dicarboximide] |  |  |  |  |  |  |  | Vasoconstriction: maximum contractile effect as a % of 90 mM KCl contraction (rat caudal artery; [5]): ≧132%; Vasoconstriction: maximum contractile effect as a % of 90 mM KCl contraction (rat caudal artery; n = 3, Table 8): ≧132%; In vivo lethality (i.v.) (Sprague Dawley rats [1]): yes^b |
| O=C(O)CN1C(=O)C2C3C=C(C(O)(c4ccccc4)c4ccccn4)C(C3=C(c3ccccc3)c3ccccn3)C2C1=O (stereo not drawn) [Compound 107, N-Carboxymethyl-5-(α-hydroxy-α-2-pyridylbenzyl)-7-(α-2-pyridylbenzylidene)-5-norbornene-2,3-dicarboximide] |  |  |  |  |  |  |  | Emax (rat caudal artery; Table 7, compounds of formula (V), read-out: Vasoconstriction: maximum contractile effect as a % of 90 mM KCl contraction): ≥ 132%; Vasoconstriction: maximum contractile effect as a % of 90 mM KCl contraction (rat caudal artery; n = 3, Table 8): ≧132%; In vivo lethality (i.v.) (Sprague Dawley rats [1]): yes^b |
| CCCCCCCCCCCC(=O)OCCN1C(=O)C2C3C=C(C(O)(c4ccccc4)c4ccccn4)C(C3=C(c3ccccc3)c3ccccn3)C2C1=O (stereo not drawn) [Compound 112, N-2′-Dodecanoyloxyethyl-5-(α-hydroxy-α-2-pyridylbenzyl)-7-(α-2-pyridylbenzylidene)-5-norbornene-2,3-dicarboximide] | 0 | 0 | 0^c % | 19.3 ± 1.3 |  |  |  |  |
| O=C(C=Cc1ccccc1)OCCN1C(=O)C2C3C=C(C(O)(c4ccccc4)c4ccccn4)C(C3=C(c3ccccc3)c3ccccn3)C2C1=O (stereo not drawn) [Compound 120, N-2′-Cinnamoyloxyethyl-5-(α-hydroxy-α-2-pyridylbenzyl)-7-(α-2-pyridylbenzylidene)-5-norbornene-2,3-dicarboximide] | 66 | 66 | 0^c % | 14.1 ± 0.4 |  |  |  |  |
| CC(CN1C(=O)C2C3C=C(C(O)(c4ccccc4)c4ccccn4)C(C3=C(c3ccccc3)c3ccccn3)C2C1=O)OC(=O)C=Cc1ccccc1 (stereo not drawn) [Compound 135, N-2′-Cinnamoyloxypropyl-5-(α-hydroxy-α-2-pyridylbenzyl)-7-(α-2-pyridylbenzylidene)-5-norbornene-2,3-dicarboximide] | 0 | 0 | 0^c % | 33.8 ± 6.1 |  |  |  |  |
| O=C(C=Cc1ccccc1)OCCCCN1C(=O)C2C3C=C(C(O)(c4ccccc4)c4ccccn4)C(C3=C(c3ccccc3)c3ccccn3)C2C1=O (stereo not drawn) [Compound 137, N-4′-Cinnamoyloxybutyl-5-(α-hydroxy-α-2-pyridylbenzyl)-7-(α-2-pyridylbenzylidene)-5-norbornene-2,3-dicarboximide] | 0 | 0 | 0^c % | 81.0 ± 0.8 |  |  |  |  |
| O=C(CCC(=O)OCCN1C(=O)C2C3C=C(C(O)(c4ccccc4)c4ccccn4)C(C3=C(c3ccccc3)c3ccccn3)C2C1=O)OCCN1C(=O)C2C3C=C(C(O)(c4ccccc4)c4ccccn4)C(C3=C(c3ccccc3)c3ccccn3)C2C1=O (stereo not drawn) [Compound 138, 5-(α-Hydroxy-α-2-pyridylbenzyl)-7-(α-2-pyridylbenzylidene)-N-2′-succinoyloxyethyl-5-norbornene-2,3-dicarboximide dimer] |  |  |  | 7.7 ± 0.2 | 0 | 0 | 0 |  |
| O=C(CCCCC(=O)OCCN1C(=O)C2C3C=C(C(O)(c4ccccc4)c4ccccn4)C(C3=C(c3ccccc3)c3ccccn3)C2C1=O)OCCN1C(=O)C2C3C=C(C(O)(c4ccccc4)c4ccccn4)C(C3=C(c3ccccc3)c3ccccn3)C2C1=O (stereo not drawn) [Compound 139, N-2′-Adipoyloxyethyl-5-(α-hydroxy-α-2-pyridylbenzyl)-7-(α-2-pyridylbenzylidene)-5-norbornene-2,3-dicarboximide dimer] |  |  |  | 11.7 ± 1.6 | 20 | 20 | 0 |  |
| O=C(CCCCCCC(=O)OCCN1C(=O)C2C3C=C(C(O)(c4ccccc4)c4ccccn4)C(C3=C(c3ccccc3)c3ccccn3)C2C1=O)OCCN1C(=O)C2C3C=C(C(O)(c4ccccc4)c4ccccn4)C(C3=C(c3ccccc3)c3ccccn3)C2C1=O (stereo not drawn) [Compound 140, 5-(α-Hydroxy-α-2-pyridylbenzyl)-7-(α-2-pyridylbenzylidene)-N-2′-suberoyloxyethyl-5-norbornene-2,3-dicarboximide dimer] |  |  |  | 9.9 ± 1.3 | 0 | 0 | 0 |  |
| O=C(CCCCCCCCCCC(=O)OCCN1C(=O)C2C3C=C(C(O)(c4ccccc4)c4ccccn4)C(C3=C(c3ccccc3)c3ccccn3)C2C1=O)OCCN1C(=O)C2C3C=C(C(O)(c4ccccc4)c4ccccn4)C(C3=C(c3ccccc3)c3ccccn3)C2C1=O (stereo not drawn) [Compound 142, N-2′-Dodecanedioyloxyethyl-5-(α-hydroxy-α-2-pyridylbenzyl)-7-(α-2-pyridylbenzylidene)-5-norbornene-2,3-dicarboximide dimer] |  |  |  | <5 | 0 | 0 | 0 |  |
| O=C(OCCN1C(=O)C2C3C=C(C(O)(c4ccccc4)c4ccccn4)C(C3=C(c3ccccc3)c3ccccn3)C2C1=O)c1ccc(C(=O)OCCN2C(=O)C3C4C=C(C(O)(c5ccccc5)c5ccccn5)C(C4=C(c4ccccc4)c4ccccn4)C3C2=O)cc1 (stereo not drawn) [Compound 143, 5-(α-Hydroxy-α-2-pyridylbenzyl)-7-(α-2-pyridylbenzylidene)-N-2′-terephthaloyloxyethyl-5-norbornene-2,3-dicarboximide dimer] |  |  |  | 27.5 ± 1.4 | 0 | 0 | 0 |  |
